Measurements taken from PMC12136037, “Type II kinase inhibitors that target Parkinson’s disease–associated LRRK2” (Science Advances, 2025).
Values joined by “and” are separate entries in the source; they are usually repeats but may differ in a detail not shown here. Identical values can stand only once.

Target: T1, LRRK2^RCKW (Homo sapiens, UniProt Q5S007)
T1 construct: LRRK2 R1327 to E2527; His6-Z-tag (TEV cleavable) (N, cleaved yes); host or cells: Sf9 insect cells (baculovirus)
T1 sequence (Q5S007 1327-2527): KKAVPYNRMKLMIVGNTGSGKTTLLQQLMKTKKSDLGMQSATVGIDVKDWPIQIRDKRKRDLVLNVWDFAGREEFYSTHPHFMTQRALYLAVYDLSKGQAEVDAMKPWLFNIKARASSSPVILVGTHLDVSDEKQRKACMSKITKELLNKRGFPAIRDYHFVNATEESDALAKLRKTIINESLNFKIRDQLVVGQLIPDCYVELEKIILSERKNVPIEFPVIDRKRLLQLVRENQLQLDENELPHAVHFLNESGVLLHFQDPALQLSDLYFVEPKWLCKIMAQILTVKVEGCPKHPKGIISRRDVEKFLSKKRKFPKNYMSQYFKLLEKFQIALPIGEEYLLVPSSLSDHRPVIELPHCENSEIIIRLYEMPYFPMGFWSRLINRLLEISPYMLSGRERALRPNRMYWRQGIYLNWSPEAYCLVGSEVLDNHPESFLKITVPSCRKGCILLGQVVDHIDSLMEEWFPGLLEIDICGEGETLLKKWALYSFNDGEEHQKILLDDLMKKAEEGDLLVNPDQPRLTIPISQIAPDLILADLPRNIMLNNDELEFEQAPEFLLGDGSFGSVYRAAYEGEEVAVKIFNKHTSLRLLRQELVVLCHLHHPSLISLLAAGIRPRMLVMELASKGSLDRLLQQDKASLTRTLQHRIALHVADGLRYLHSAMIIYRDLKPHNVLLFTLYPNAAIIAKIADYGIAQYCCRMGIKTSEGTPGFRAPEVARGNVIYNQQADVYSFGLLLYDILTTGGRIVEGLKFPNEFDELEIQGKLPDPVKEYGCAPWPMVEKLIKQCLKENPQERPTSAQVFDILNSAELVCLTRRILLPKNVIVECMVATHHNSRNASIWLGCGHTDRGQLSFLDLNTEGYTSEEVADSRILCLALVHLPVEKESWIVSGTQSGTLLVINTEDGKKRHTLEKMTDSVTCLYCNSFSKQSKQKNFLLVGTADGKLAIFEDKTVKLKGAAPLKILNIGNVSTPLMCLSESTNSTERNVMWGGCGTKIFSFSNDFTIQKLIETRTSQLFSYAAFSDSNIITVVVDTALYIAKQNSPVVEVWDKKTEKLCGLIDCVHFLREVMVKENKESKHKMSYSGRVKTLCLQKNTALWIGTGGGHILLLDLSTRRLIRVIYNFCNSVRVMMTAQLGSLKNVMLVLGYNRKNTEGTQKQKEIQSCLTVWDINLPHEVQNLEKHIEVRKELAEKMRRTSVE
Assay: Biochemical LRRK2 activity assay (PhosphoSense, AssayQuant SOX peptide AQT0615)
Conditions: for IC50: LRRK2^RCKW kinase activity, in vitro; for normalized response (LRRK2 activity): normalized to 0% (no kinase) and 100% (no inhibitor) control, two singlicate columns per compound
Protocol: Two wells per compound were used as 0% (without protein and compound) and 100% (without compound) control. […] The 0% control wells were filled with 10 μl of pure reaction buffer. With the ECHO, 5 nl of 100 mM ATP was pipetted into each well, the plates were centrifuged at 1500g for 2 min, and the reaction was incubated at room temperature for 4 hours. The fluorescence of the SOX-peptide after 360-nm excitation was measured at 487-nm emission with a PHERAstar plate reader (BMG Labtech). The IC50 values were calculated from a nonlinear regression of the log[inhibitor] versus the normalized response with GraphPad Prism 8 (www.graphpad.com/, RRID:SCR_002798).

Row | IC50 [µM] | normalized response (LRRK2 activity) (log[inhibitor(mol)] -4.82391) | normalized response (LRRK2 activity) (log[inhibitor(mol)] -5.12494) | normalized response (LRRK2 activity) (log[inhibitor(mol)] -5.60206) | normalized response (LRRK2 activity) (log[inhibitor(mol)] -6.30103) | normalized response (LRRK2 activity) (log[inhibitor(mol)] -6.90309) | normalized response (LRRK2 activity) (log[inhibitor(mol)] -7.30103) | normalized response (LRRK2 activity) (log[inhibitor(mol)] -7.60206) | normalized response (LRRK2 activity) (log[inhibitor(mol)] -8.09691) | normalized response (LRRK2 activity) (log[inhibitor(mol)] -8.61979) | normalized response (LRRK2 activity) (log[inhibitor(mol)] -9.09691) | normalized response (LRRK2 activity) (log[inhibitor(mol)] -9.39794) | Structure (SMILES)
1 | 0.159 ± 0.0002 | -26.6261% and -31.2355% | -19.0277% and -21.4214% | -16.2351% and -13.5898% | 3.675% and 3.246% | 59.976% and 57.9812% | 81.7768% and 85.349% | 93.6348% and 95.0771% | 95.5743% and 95.9609% | 101.288% and 95.0587% | 106.438% and 96.5808% | 103.437% and 104.087% | O=C(Nc1cccc(-c2c[nH]c3ncnc(N4CCOCC4)c23)c1)C1(C(=O)Nc2ccc(F)cc2F)CC1 [Compound 23]
2 | 0.11 ± 0.011 | -5.58% and -14.6884% | -12.9576% and -4.07% | -8.508% and -7.489% |  | 42.2259% and 43.1588% | 74.6695% and 77.6217% | 88.2582% and 90.1977% | 89.9215% and 96.544% | 106.119% and 94.9298% | 105.603% and 97.4708% | 68.2188% and 102.467% | Cc1cc(NC(=O)C2(C(=O)Nc3cccc(-c4c[nH]c5ncnc(N6CCOCC6)c45)c3)CC2)ccc1F [Compound 20]
3 | 0.35 ± 0.025 | 0.1647% and -9.791% | -4.574% and -1.793% | 1.386% and 6.849% | 35.45% and 38.9177% | 76.566% and 79.9356% | 91.6032% and 94.9482% | 99.2139% and 97.704% | 99.3121% and 101.951% | 104.222% and 110.035% | 103.486% and 106.278% | 106.585% and 109.47% | O=C(Nc1ccccc1)C1(C(=O)Nc2cccc(-c3c[nH]c4ncnc(N5CCOCC5)c34)c2)CC1 [Compound 12]
4 | 0.0597 ± 0.0029 | 3.992% and -4.217% | -4.603% and -7.6443% | -5.899% and -7.93% | -0.5957% and -1.998% | 20.6807% and 19.3416% | 54.9087% | 83.9541% and 76.0062% | 102.755% and 100.691% | 109.195% and 109.069% | 110.935% and 112.883% | 72.3369% and 118.777% | CC(C)(C)c1cc(NC(=O)Nc2cccc(-c3c[nH]c4ncnc(N5CCOCC5)c34)c2)n(-c2ccc3ncccc3c2)n1 [Compound 28]
5 | 0.152 ± 0.044 |  | -12.1904% and -14.2894% | -3.604% and -4.745% |  | 53.6603% and 67.7094% | 89.4919% and 81.5068% |  | 92.5361% and 84.907% | 95.9241% and 92.0144% | 91.7935% and 96.8386% | 94.1994% and 95.2858% | O=C(Nc1cccc(-c2c[nH]c3ncnc(N4CCOCC4)c23)c1)C1(C(=O)Nc2ccc(F)c(Cl)c2)CC1 [Compound 18]
6 | 0.156 ± 0.033 |  | -6.986% and -9.956% | 21.8981% and 20.2655% | 13.87% and 15.03% | 58.2022% and 57.0299% | 81.6541% and 110.82% | 85.6497% and 54.8081% | 91.8548% and 92.1679% | 98.0477% and 97.5874% | 93.5857% and 99.2323% | 96.7834% and 110.495% | Cc1ccc(NC(=O)C2(C(=O)Nc3cccc(-c4c[nH]c5ncnc(N6CCOCC6)c45)c3)CC2)cc1 [Compound 14]
7 | 0.717 ± 0.014 |  |  | 15.0853% and 13.379% | 62.4187% and 38.0646% | 95.7707% and 92.6957% | 101.552% and 99.1095% | 102.657% and 105.64% | 106.745% and 99.576% | 101.35% and 101.951% | 104.075% and 108.101% | 110.679% and 104.597% | O=C(Nc1ccc(Cl)cc1)C1(C(=O)Nc2cccc(-c3c[nH]c4ncnc(N5CCOCC5)c34)c2)CC1 [Compound 13]
8 | 0.185 ± 0.01 | -3.585% and -13.2094% | -9.6118% and -10.6428% | -5.033% and -3.426% | 19.2953% and 18.2204% | 61.3205% and 61.6605% | 88.0559% and 79.7364% | 100.582% and 98.3497% | 94.604% and 97.0225% | 106.516% and 96.1066% | 107.272% and 96.9347% | 103.198% and 102.243% | O=C(Nc1ccc(F)cc1)C1(C(=O)Nc2cccc(-c3c[nH]c4ncnc(N5CCOCC5)c34)c2)CC1 [Compound 2]

Row | Structure (SMILES) | IC50 [µM] | normalized response (LRRK2 activity) (log[inhibitor(mol)] -4.82391) | normalized response (LRRK2 activity) (log[inhibitor(mol)] -5.12494) | normalized response (LRRK2 activity) (log[inhibitor(mol)] -5.60206) | normalized response (LRRK2 activity) (log[inhibitor(mol)] -6.30103) | normalized response (LRRK2 activity) (log[inhibitor(mol)] -6.90309) | normalized response (LRRK2 activity) (log[inhibitor(mol)] -7.30103) | normalized response (LRRK2 activity) (log[inhibitor(mol)] -7.60206) | normalized response (LRRK2 activity) (log[inhibitor(mol)] -8.09691) | normalized response (LRRK2 activity) (log[inhibitor(mol)] -8.61979) | normalized response (LRRK2 activity) (log[inhibitor(mol)] -9.09691) | normalized response (LRRK2 activity) (log[inhibitor(mol)] -9.39794)
9 | COc1cc2c(Oc3ccc(NC(=O)C4(C(=O)Nc5ccc(F)cc5)CC4)cc3F)ccnc2cc1OCCCN1CCOCC1 [Foretinib, reference compound] |  |  | -8.307% and -10.693% | -1.8523% and 5.65% | 28.3235% and 31.8978% | 69.5315% and 73.0571% | 85.8697% and 90.8136% | 93.5528% and 93.9107% | 88.4499% and 91.6177% | 92.1788% and 92.8283% | 95.8547% and 84.8889% | 98.1654% and 60.9912%
